Results on seven molecules are retold here after patent US20260176289A1, “SMALL MOLECULE INHIBITORS OF KRAS PROTEINS” (Merck Sharp & Dohme LLC, priority 2022, published 2026).

Like-named read-outs stand apart in the source and are kept apart here.

The term IC50 denotes the concentration needed to halve the response being measured.

One assay addresses HRAS (Homo sapiens, UniProt P01112). Kind of assay: SOS-catalyzed nucleotide exchange assay (Procedure A, TR-FRET), HRAS. The assay is classed as biochemical. To be noted: read-out: HRAS GNE IC50. The source says:
Procedure for SOS-Catalyzed Nucleotide Exchange Assay for KRAS-WT, G12C/D/V, G13D, HRAS, and NRAS (Procedure A)
Recombinant KRAS-G12C protein used in this assay has an additional triple mutation (C51S/C80L/C118S). Whereas KRAS-WT, G12D/V, G13D, HRAS and NRAS are in context of their WT protein sequence background. Specifically, the SOS-catalyzed nucleotide exchange assay utilizes a preformed TR-FRET complex containing a specific biotinylated RAS protein (KRAS-WT, G12C/V/D, G13D, HRAS, NRAS; described above) with Bodipy-GDP, and Terbium-streptavidin. Compounds are preincubated with this complex for 60 minutes. Subsequently, recombinant human SOS protein and unlabeled GTP are added to initiate the exchange reaction. Small molecule inhibitors stabilize the Bodipy-GDP complex whereas the untreated protein rapidly exchanges Bodipy-GDP for unlabeled GTP resulting in reduced TR-FRET signal.
To assemble the preformed TR-FRET complexes, each biotinylated RAS protein is diluted to 2 μM in an EDTA Buffer (20 mM HEPES pH 7.5, 50 mM sodium chloride, 10 mM EDTA, and 0.01% Tween) and incubated at room temperature for one hour. This mixture is then further diluted to 90 nM in an Assay Buffer (20 mM HEPES pH 7.5, 150 mM sodium chloride, 10 mM magnesium chloride, and 0.005% Tween) containing 15 nM of Terbium-Streptavidin (Invitrogen, catalog #PV3577) and 900 nM of Bodipy-GDP (Invitrogen, catalog #G22360) and incubated at room temperature for six hours. It should be noted that this preformed TR-FRET complex for each of the RAS protein were made ahead of time, aliquoted and stored at −80° C. until the day of the experiment.
Each test compound (10 mM stock in DMSO) is diluted in DMSO to make a final-10-point, 3-fold dilution and is acoustically dispensed into a 384-well assay plate (Corning, catalog #3820) using an Echo 550 (Labcyte). Each well of the assay plate receives 3 μL of a specific 3×RAS preformed TR-FRET complex and 3 μL of Assay Buffer and is incubated at room temperature for 60 minutes (preincubation time). Each well then receives 3 μL of 3×recombinant human SOS protein and GTP (Sigma, G8877) in Assay Buffer and is incubated at room temperature for 30 minutes (G13D), 60 minutes (KRAS WT/G12C/D, H/NRAS) or 90 minutes for G12V. The final reaction in each well of 9 μL consists of 3 mM GTP, specific Ras and SOS proteins in the following concentrations: KRAS-G12C/SOS=3 nM/40 nM, KRAS-WT and G12D/SOS=1 nM/40 nM, KRAS-G12V/SOS=1.25 nM/160 nM. KRAS-G13D/SOS=1.25 nM/0 nM, HRAS and NRAS=1.25 nM/40 nM.
The time-resolved fluorescence resonance energy transfer (TR-FRET) signal is measured on an Envision (PerkinElmer) plate reader: Excitation filter=340 nm; emission 1=495 nm; emission2=520 nm; dichroic mirror=D400/D505; delay time=[…]. The signal of each well is determined as the ratio of the emission at 520 nm to that at 495 nm. Percent effect of each well is determined after normalization to control wells containing DMSO (no effect) or a saturating concentration of inhibitor (max effect). The apparent effect as a function of compound concentration is fit to a four-parameter logistic equation.
A general note: TR-FRET usually uses a lanthanide donor and a delayed reading to cut background.

The target in the next assay is KRAS-G13D (Homo sapiens, UniProt P01116, G13D). The assay is described as follows: SOS-catalyzed nucleotide exchange assay (Procedure A, TR-FRET), KRAS-G13D. The assay is classed as biochemical. To be noted: nucleotide exchange, Procedure A; read-out: KRAS G13D GNE IC50.
In another assay the target is KRAS-WT (Homo sapiens, UniProt P01116). The assay is described as follows: SOS-catalyzed nucleotide exchange assay (Procedure A, TR-FRET), KRAS-WT. To be noted: nucleotide exchange, read-out: KRAS WT GNE IC50. The assay is classed as biochemical. In a few lines:
(§1)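 Inhibitors stabilizing the Bodipy-GDP state are detected as retained TR-FRET from a preformed biotinylated RAS/Tb-streptavidin complex. They are preincubated 60 min at room temperature, then human SOS and 3 mM GTP are added. G12V runs 90 min at 1.25 nM RAS/160 nM SOS. G12C (3 nM), WT (1 nM) and NRAS (1.25 nM) run 60 min with 40 nM SOS.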

The next assay deals with AsPC-1 cells. Kind of assay: Cellular phospho-ERK assay, AsPC-1 cells (homozygous KRAS-G12D). Type of assay: cell-based. The conditions noted are these: Homo sapiens, ASPC1, 2 h, read-out: AsPC1 pERK IC50. In a few lines: (§2)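 Overnight-plated cells on collagen received test compound (up to 30 μM final, threefold steps, ten concentrations) for two hours. After lysis at room temperature, phosphorylated and total ERK were quantified together by Alpha SureFire, and IC50 is based on the phospho-to-total signal ratio.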

For a further assay, the system named is SW620 cells. Kind of assay: Cellular phospho-ERK assay, SW620 cells (homozygous KRAS-G12V). The assay is classed as cell-based. The conditions noted are these: Homo sapiens, read-out: SW620 pERK IC50. The procedure, abridged: as §2
For assay [1], the target named is KRAS-G12C (C51S/C80L/C118S) (Homo sapiens, UniProt P01116, C118S/C51S/C80L/G12C). The assay is described as follows: SOS-catalyzed nucleotide exchange assay (Procedure A, TR-FRET), KRAS-G12C. The assay is classed as biochemical. To be noted: nucleotide exchange, Procedure A; read-out: KRAS G12C GNE IC50. The procedure, abridged: as §1
For the next assay, the target named is KRAS-G12D (Homo sapiens, UniProt P01116, G12D). Kind of assay: SOS-catalyzed nucleotide exchange assay (Procedure A, TR-FRET), KRAS-G12D. The assay is classed as biochemical. The conditions noted are these: nucleotide exchange, read-out: KRAS G12D GNE IC50. The procedure, abridged: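 Signal ratio (520/495 nm, excitation 340 nm) reports Bodipy-GDP retention on biotinylated RAS after SOS-catalyzed exchange with 3 mM GTP. SOS was 40 nM, except 160 nM for G12V. Room-temperature exchange lasted 60 min (90 min for G12V), following a 60 min compound preincubation.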

For the next assay, the target named is KRAS-G12V (Homo sapiens, UniProt P01116, G12V). Kind of assay: SOS-catalyzed nucleotide exchange assay (Procedure A, TR-FRET), KRAS-G12V. The conditions noted are these: nucleotide exchange, read-out: KRAS G12V GNE IC50. The assay is classed as biochemical. The procedure, abridged:
as §1

Another assay has as its system MKN-1 cells. Kind of assay: Cellular phospho-ERK assay, MKN-1 cells (amplified wild-type KRAS). To be noted: Homo sapiens, read-out: MKN1 pERK IC50. The assay is classed as cell-based. The procedure, abridged: as §2
Where [2] appears, read: SW-620, 2 hours compound incubation.
Setting [3] is: amplified wild-type KRAS, 2 hours.

KRAS-G12V, sequence (P01116 with tags, fused parts or gaps isoform P01116-2 G12V): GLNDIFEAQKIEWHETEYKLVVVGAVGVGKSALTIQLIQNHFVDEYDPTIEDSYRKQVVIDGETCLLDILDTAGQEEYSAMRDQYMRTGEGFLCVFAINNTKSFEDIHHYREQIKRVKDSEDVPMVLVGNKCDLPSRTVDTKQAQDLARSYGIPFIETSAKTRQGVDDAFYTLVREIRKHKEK
KRAS-G12C (C51S/C80L/C118S), sequence (P01116 with tags, fused parts or gaps isoform P01116-2 G12C/C51S/C80L/C118S): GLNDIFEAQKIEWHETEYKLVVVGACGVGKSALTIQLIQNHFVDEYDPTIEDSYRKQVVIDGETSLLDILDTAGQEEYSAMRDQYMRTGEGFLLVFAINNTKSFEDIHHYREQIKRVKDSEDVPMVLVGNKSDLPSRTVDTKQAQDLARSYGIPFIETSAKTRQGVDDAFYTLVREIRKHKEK
HRAS, sequence (P01112 with tags, fused parts or gaps): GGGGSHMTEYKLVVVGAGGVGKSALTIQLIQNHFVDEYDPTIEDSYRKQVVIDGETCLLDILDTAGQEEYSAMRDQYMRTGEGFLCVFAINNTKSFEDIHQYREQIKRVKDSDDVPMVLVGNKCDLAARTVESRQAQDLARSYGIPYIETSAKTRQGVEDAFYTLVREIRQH
KRAS-G13D, sequence (P01116 with tags, fused parts or gaps isoform P01116-2 G13D): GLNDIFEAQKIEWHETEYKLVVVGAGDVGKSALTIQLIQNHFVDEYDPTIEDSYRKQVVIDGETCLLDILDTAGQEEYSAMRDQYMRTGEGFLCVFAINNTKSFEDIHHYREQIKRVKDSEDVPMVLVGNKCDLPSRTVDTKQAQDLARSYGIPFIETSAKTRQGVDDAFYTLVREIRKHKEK
KRAS-WT, sequence (P01116 with tags, fused parts or gaps isoform P01116-2): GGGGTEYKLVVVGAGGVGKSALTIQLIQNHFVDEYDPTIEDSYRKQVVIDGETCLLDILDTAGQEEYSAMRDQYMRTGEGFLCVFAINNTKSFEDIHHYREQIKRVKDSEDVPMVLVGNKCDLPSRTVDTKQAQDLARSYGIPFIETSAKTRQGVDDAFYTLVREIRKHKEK
KRAS-G12D, sequence (P01116 with tags, fused parts or gaps isoform P01116-2 G12D): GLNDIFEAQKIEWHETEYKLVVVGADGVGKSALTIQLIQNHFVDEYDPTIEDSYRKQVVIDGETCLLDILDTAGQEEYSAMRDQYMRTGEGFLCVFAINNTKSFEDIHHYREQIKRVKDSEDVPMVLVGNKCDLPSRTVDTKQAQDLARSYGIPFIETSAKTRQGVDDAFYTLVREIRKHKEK

`C[C@H]1CCN1C[C@@]1(COc2nc(N3CCOC[C@@](C)(O)C3)c3c(n2)sc2c(-c4c(C5(F)CC5)c(Cl)cc5[nH]ncc45)nccc23)CC1(F)F` [Ex-253, (6S)-4-(8-(6-chloro-5-(1-fluorocyclopropyl)-1H-indazol-4-yl)-2-(((R)-2,2-difluoro-1-(((S)-2-methylazetidin-1-yl)methyl)cyclopropyl)metho-xy)pyrido[4′,3′:4,5]thieno[2,3-d]pyrimidin-4-yl)-6-methyl-1,4-oxazepan-6-ol]: the 50% inhibitory concentration (IC50) at HRAS was 1060 nM; on KRAS-G13D it was 18.4 nM; on KRAS-WT it was 20.1 nM; in the assay with AsPC-1 cells (2 hours compound incubation) it was 57.6 nM; in the assay with SW620 cells (setting [2]) it was 49.6 nM; in assay [1], 15.2 nM. The IC50 was found to be 4.1 nM on KRAS-G12D, 15.9 nM on KRAS-G12V and 49.7 nM with MKN-1 cells (2 hours compound incubation).
Take `CC1CCc2cc3[nH]ncc3c(-c3nccc4c3sc3nc(OC[C@@]56CCCN5C[C@H](F)C6)nc(N5CCOC[C@@](C)(O)C5)c34)c21` (single isomer, unassigned) [Ex-103]: the IC50 at HRAS is 8010 nM; at KRAS-G13D, 4.51 nM; on KRAS-WT, 6.28 nM; with AsPC-1 cells (KRAS-G12D, 2 hours), 26.3 nM; in the assay on SW620 cells (SW-620, KRAS-G12V, 2 hours), 19.9 nM; in assay [1], 18.1 nM. The results for the IC50 on KRAS-G12D, on KRAS-G12V and in the assay on MKN-1 cells (setting [3]) were 2.12 nM, 8.72 nM and 30.9 nM, respectively.
Regarding `C[C@@]1(O)COCCN(c2nc(OC[C@]3(CN4CC(CF)C4)CC3(F)F)nc3sc4c(-c5c(C6(F)CC6)c(Cl)cc6[nH]ncc56)nccc4c23)C1` [Ex-266, (6S)-4-(8-(6-chloro-5-(1-fluorocyclopropyl)-1H-indazol-4-yl)-2-(((R)-2,2-difluoro-1-((3-(fluoromethyl)azetidin-1-yl)methyl)cyclopropyl)metho-xy)pyrido[4′,3′:4,5]thieno[2,3-d]pyrimidin-4-yl)-6-methyl-1,4-oxazepan-6-ol], the half-maximal inhibitory concentration (IC50) came out at 1290 nM on HRAS; 28.2 nM on KRAS-G13D; 23.4 nM at KRAS-WT; 89.7 nM in the assay on AsPC-1 cells (2 hours compound incubation); 39.2 nM with SW620 cells (setting [2]); 68.8 nM in assay [1]. For the same molecule, the half-inhibitory concentration (IC50) at KRAS-G12D worked out at 3.75 nM; at KRAS-G12V, 21.6 nM; in the assay on MKN-1 cells (2 hours compound incubation), 47.3 nM.
`C[C@@]1(O)COCCN(c2nc(OC[C@]3(CN4CC5(CC(F)C5)C4)CC3(F)F)nc3sc4c(-c5c(C6CC6)c(Cl)cc6[nH]ncc56)nccc4c23)C1` [Ex-230]: the IC50 on HRAS is 1640 nM; on KRAS-G13D it was 13.9 nM; on KRAS-WT it was 88.5 nM; with AsPC-1 cells (2 hours compound incubation), 51.5 nM; in the assay with SW620 cells (setting [2]) it was 23.2 nM; in assay [1] it was 21.1 nM. Also, the IC50 was 16 nM on KRAS-G12D, 70.1 nM on KRAS-G12V and 52.7 nM in the assay on MKN-1 cells (2 hours compound incubation).
As for `C#Cc1c(F)ccc2cc3[nH]ncc3c(-c3nccc4c3sc3nc(OC[C@@]56CCCN5C[C@H](F)C6)nc(N5CCOC[C@@](C)(O)C5)c34)c12` [Ex-160, (6S)-4-(8-(5-ethynyl-6-fluoro-1H-benzo[f]indazol-4-yl)-2-(((2R,7aS)-2-fluorotetrahydro-1H-pyrrolizin-7a(5H)-yl)methoxy)pyrido[4′,3′:4,5]thieno[2,3-d]pyrimidin-4-yl)-6-methyl-1,4-oxazepan-6-ol], the IC50 on HRAS came to 5540 nM; on KRAS-G13D it was 4.55 nM; at KRAS-WT, 4.41 nM; in the assay with AsPC-1 cells (2 hours compound incubation), 18.9 nM; in the assay with SW620 cells (setting [2]) it was 7.87 nM; in assay [1], 53.2 nM. The IC50 on KRAS-G12D was 2.43 nM; on KRAS-G12V it was 5.25 nM; in the assay on MKN-1 cells (2 hours compound incubation) it was 19.9 nM.
In the case of `C[C@@]1(O)COCCN(c2nc(OC[C@@]34CCCN3C[C@H](F)C4)nc3sc4c(-c5c(C6CC6)c(Cl)cc6[nH]ncc56)nncc4c23)C1` [Ex-280, (6S)-4-(8-(6-chloro-5-cyclopropyl-1H-indazol-4-yl)-2-(((2R,7aS)-2-fluorotetrahydro-1H-pyrrolizin-7a(5H)-yl)methoxy)pyrimi-do[5′,4′:4,5]thieno[2,3-d]pyridazin-4-yl)-6-methyl-1,4-oxazepan-6-ol], the IC50 on HRAS amounted to 8660 nM; at KRAS-G13D it was 4.89 nM; on KRAS-WT, 9.47 nM; with AsPC-1 cells (KRAS-G12D, 2 hours), 78.2 nM; with SW620 cells (SW-620, KRAS-G12V, 2 hours), 106 nM; in assay [1], 61 nM. In addition, the 50% inhibitory concentration (IC50) on KRAS-G12D is 4.55 nM; on KRAS-G12V it was 12.4 nM; in the assay on MKN-1 cells (setting [3]), 62 nM.
Regarding `C[C@@]1(O)COCCN(c2nc(OC[C@@]34CCCN3C/C(=C\F)C4)nc3sc4c(-c5c(C6(F)CC6)c(Cl)cc6[nH]ncc56)nccc4c23)C1` [Ex-267, (6S)-4-(8-(6-chloro-5-(1-fluorocyclopropyl)-1H-indazol-4-yl)-2-(((S,Z)-2-(fluoromethylene)tetrahydro-1H-pyrrolizin-7a(5H)-yl)methoxy)pyrido[4′,3′:4,5]thieno[2,3-d]pyrimidin-4-yl)-6-methyl-1,4-oxazepan-6-ol], the concentration for half-maximal inhibition (IC50) was 4250 nM at HRAS; 9.94 nM at KRAS-G13D; 5.56 nM on KRAS-WT; 23.6 nM in the assay with AsPC-1 cells (2 hours compound incubation); 24 nM in the assay on SW620 cells (setting [2]); 23.5 nM in assay [1]. Besides, the concentration for half-maximal inhibition (IC50) on KRAS-G12D is 3.26 nM; at KRAS-G12V, 8.11 nM; with MKN-1 cells (2 hours compound incubation), 18.7 nM.
